Assay results from patent US20230346771A1, “INHIBITORS OF ENPP1 AND MODULATION OF BONE GROWTH” (Petragen, Inc., priority 2022, published 2023).

Tested on: fenestration defects on buccal aspect of mandibular first molar in mice
Experiment: Fenestration defect model with microCT of mandibles
Format: in vivo
Settings: high dose (10 uM, 1 uL on collagen sponge in defect); 28 days; compared to ALPL, DMSO and low dose
Experimental: Fenestration defects were created on buccal aspect of mandibular first molar, distal root, in 6-7 week old mice. Collagen sponge with 1 uL of either alkaline phosphatase (ALPL) (100 ng/uL), DMSO (1 uL undiluted), high dose ENPP1 inhibitor (10 uM), low dose ENPP1 inhibitor (1 uM) was applied in the defect (n=3 or 4 for each group). Mice were euthanized 28 days later, and their mandibles were microCT scanned (unoperated side, defect side). A region of interest was defined as follows: • Right and left sides registered to each other to standardize position; • 480 microns mesial to and 3600 microns distal to first molar mesial height of contour; and
Unoperated side with defect side were registered, the enamel was removed from analysis, and change in volume (defect side—control side) was calculated from for dentin/cementum and alveolar bone for each treatment: ALPL, DMSO, low dose ENPP1 inhibitor, and high dose ENPP1 inhibitor. Regenerated bone area was much larger than defect size. To make the defect, muscle attachment was severed, and the region was curetted. Because the collagen sponge was placed in the defect and not fully enclosed (muscle was repositioned and sutured over sponge), there could be some leakage of DMSO/ALP/ENPP1 inhibitor, further stimulating bone growth.

COc1ccc2c(-c3ccc(CNS(N)(=O)=O)cc3)ccnc2c1 [ENPP1 inhibitor, N-[[4-(7-methoxy-4-quinolinyl)phenyl]methyl]-sulfamide]
bone densities on the fenestration side (density heat maps): higher
